# In US6506607B1, “Methods and compositions for the identification and assessment of prostate cancer therapies and the diagnosis of prostate cancer” (Millennium Pharmaceuticals, Inc., priority 1997, dated 2003):
# Test system: LNCaP cells
# Procedure: After 25 hours of incubation in testosterone-containing medium, the cells were detached from the flasks with trypsin and pelleted. Five T162 flasks of pretreated cells were used as a control. Untreated cells were collected in the same manner.
# Total RNA was prepared from the cell pellets using the RNeasy protocol (Qiagen).
# The PCR products representing partial cDNAs of putatively differentially expressed mRNAs were subcloned into pCR2.1 (InVitrogen) and transformed into INValphaF^1 cells.
# The differentially expressed genes were then identified by screening on a Gene Expression Micro-Array™ (Synteni, Inc.; Fremont, Calif.).
# In some cases only a partial sequence is presented in the corresponding figure. The various methods described herein can employ complete sequences or fragments thereof.
compound,measurement,value
C[C@]12CC[C@H]3[C@@H](CCC4=CC(=O)CC[C@@]43C)[C@@H]1CC[C@@H]2O [testosterone],Fold Increase In mRNA: 54 kDa progesterone receptor-associated immunophilin FKBP54,2.5
same,Fold Increase In mRNA: Ankyrin G (ANK-3) (U13616),2.7
same,Fold Increase In mRNA: Aryl hydrocarbon receptor nuclear translocator,4.6
same,Fold Increase In mRNA: BM28 mRNA/DNA replication licensing factor (huMCM2),2.4
same,Fold Increase In mRNA: Cell division protein kinase 6,3.1
same,Fold Increase In mRNA: Cytochrome b5,3.3
same,Fold Increase In mRNA: ESTs {23605},2.5
same,Fold Increase In mRNA: ESTs {26259},5
same,Fold Increase In mRNA: ESTs {32161},2.5
same,Fold Increase In mRNA: ESTs {41700},4
same,Fold Increase In mRNA: ESTs {46287},3
same,Fold Increase In mRNA: ESTs {48537},4.5
same,Fold Increase In mRNA: ESTs {51591},2.3
same,Fold Increase In mRNA: ESTs {52371},2.6
same,Fold Increase In mRNA: ESTs {128055},2.8
same,Fold Increase In mRNA: ESTs {128990},5
same,Fold Increase In mRNA: ESTs {131591},2.3
same,Fold Increase In mRNA: ESTs {135326},3.4
same,Fold Increase In mRNA: ESTs {141115},2.3
same,Fold Increase In mRNA: ESTs {151339},2.4
same,Fold Increase In mRNA: ESTs {174787},2.4
same,Fold Increase In mRNA: ESTs {177150},3.1
same,Fold Increase In mRNA: ESTs {180082},2.1
same,Fold Increase In mRNA: ESTs {195079},4.3
same,Fold Increase In mRNA: ESTs {221118},4.4
same,Fold Increase In mRNA: ESTs {230447},2.4
same,Fold Increase In mRNA: ESTs {242643},4.1
same,Fold Increase In mRNA: ESTs {249347},3.5
same,Fold Increase In mRNA: ESTs {264293},3
same,Fold Increase In mRNA: ESTs {297463},2.3
same,Fold Increase In mRNA: ESTs {301487},3.8
same,Fold Increase In mRNA: ESTs {344156},5.9
same,Fold Increase In mRNA: ESTs {364477},2.5
same,Fold Increase In mRNA: ESTs {364618},2.7
same,Fold Increase In mRNA: ESTs {375900},3.1
same,Fold Increase In mRNA: ESTs {415795},2.8
same,Fold Increase In mRNA: ESTs {429349},3
same,Fold Increase In mRNA: ESTs {469725},3.7
same,Fold Increase In mRNA: ESTs {471083},2.6
same,Fold Increase In mRNA: ESTs {488092},2.5
same,Fold Increase In mRNA: EXT1 = putative tumor suppressor/hereditary mult. exostoses candidate gene,2.4
same,Fold Increase In mRNA: Eukaryotic initiation factor 1A,2.4
same,"Fold Increase In mRNA: Fibronectin (S00848, transformation-associated human fragment)",2.8
same,Fold Increase In mRNA: Gelsolin precursor,2.8
same,Fold Increase In mRNA: Guanine nucleotide exchange factor MSS4 (U74324) (−76 nucleotide),2.7
same,Fold Increase In mRNA: HEK2 protein tyrosine kinase receptor,2.6
same,Fold Increase In mRNA: High mobility group protein HMG1 (X12597),2.6
same,Fold Increase In mRNA: Histone H2AZ,2.5
same,Fold Increase In mRNA: Immunoglobulin rearranged H-chain V-region (C-D-J Hg),3.6
same,Fold Increase In mRNA: KIAA0018 gene (D13643),3.3
same,Fold Increase In mRNA: Kinesin-related protein,4.8
same,"Fold Increase In mRNA: L-lactate dehydrogenase M chain (X02152, M17516)",3
same,Fold Increase In mRNA: Monoamine oxidase,5.5
same,Fold Increase In mRNA: Myeloblast KIAA0130 gene (D50920),3.3
same,Fold Increase In mRNA: Neprilysin,2.8
same,Fold Increase In mRNA: Phospholipase A2 (M22430),2.7
same,Fold Increase In mRNA: Pyruvate kinase (M26252) = human TCB gene encoding cytosolic thyroid hormone-binding protein,2.3
same,Fold Increase In mRNA: Ras-like GTP-binding protein RAN,2.6
same,Fold Increase In mRNA: S-adenosylmethionine decarboxylase,2.3
same,Fold Increase In mRNA: S-adenosylmethionine decarboxylase proenzyme (M21154),2.5
same,Fold Increase In mRNA: STS (WI 12919),7.7
same,Fold Increase In mRNA: STS (WI-8530),5
same,Fold Increase In mRNA: Simian T-cell lymphotropic virus type I DNA for tax/rex region,2.3
same,Fold Increase In mRNA: Spectrin alpha chain,3.5
same,Fold Increase In mRNA: Thyroid receptor interactor (TRIP7) (L40357) (−92 nucleotide),2.4
same,Fold Increase In mRNA: Tubulin beta 1 chain,2.8
same,Fold Increase In mRNA: UDP glucuronosyltransferase precursor (UGT2B15),2.8
same,Fold Increase In mRNA: UDP-glucuronosyltransferase 2B7 precursor,3.9
same,Fold Increase In mRNA: Vacuolar ATP synthase subunit AC39; or bovine (P17694) NADH-ubiquinone oxidoreductase 49 kD subunit,3.1
same,Fold Increase In mRNA: Yeast guanine nucleotide-binding protein beta subunit-like protein,2.4
same,Fold Increase In mRNA: p0071 protein (X81889),2.4
